Laboratory results from PubChem BioAssay (NCI).
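Method: 48-hour compound exposure of cells in 96-well plates, five concentrations, linear interpolation of endpoints. Abbreviation: GI50, concentration required for 50% inhibition of growth. TGI: total growth inhibition.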

Key:
Experiment in all cases: DTP human tumour cell line panel, 48 h
[1] = tested on: 786-0 renal
[2] = tested on: A549 NSCLC
[3] = tested on: ACHN renal
[4] = tested on: BT-549 breast
[5] = tested on: CAKI-1 renal
[6] = tested on: CCRF-CEM leukemia
[7] = tested on: COLO 205 colon
[8] = tested on: DU-145 prostate
[9] = tested on: EKVX NSCLC
[10] = tested on: HCC-2998 colon
[11] = tested on: HCT-116 colon
[12] = tested on: HCT-15 colon
[13] = tested on: HL-60(TB) leukemia
[14] = tested on: HOP-62 NSCLC
[15] = tested on: HOP-92 NSCLC
[16] = tested on: HS 578T breast
[17] = tested on: HT29 colon
[18] = tested on: IGROV1 ovarian
[19] = tested on: K-562 leukemia
[20] = tested on: KM12 colon
[21] = tested on: LOX IMVI melanoma
[22] = tested on: M14 melanoma
[23] = tested on: MALME-3M melanoma
[24] = tested on: MCF7 breast
[25] = tested on: MDA-MB-231 breast
[26] = tested on: MDA-MB-435
[27] = tested on: MOLT-4 leukemia
[28] = tested on: NCI-H226 lung
[29] = tested on: NCI-H23 lung
[30] = tested on: NCI-H460 lung
[31] = tested on: NCI-H522 lung
[32] = tested on: NCI/ADR-RES ovarian
[33] = tested on: OVCAR-3 ovarian
[34] = tested on: OVCAR-4 ovarian
[35] = tested on: OVCAR-5 ovarian
[36] = tested on: OVCAR-8 ovarian
[37] = tested on: PC-3 prostate
[38] = tested on: RPMI-8226 leukemia
[39] = tested on: RXF 393 renal
[40] = tested on: SF-268 CNS
[41] = tested on: SF-295 CNS
[42] = tested on: SF-539 CNS
[43] = tested on: SK-MEL-2 melanoma
[44] = tested on: SK-MEL-28 melanoma
[45] = tested on: SK-MEL-5 melanoma
[46] = tested on: SK-OV-3 ovarian
[47] = tested on: SN12C renal
[48] = tested on: SNB-19 CNS
[49] = tested on: SNB-75 CNS
[50] = tested on: SR leukemia
[51] = tested on: SW-620 colon
[52] = tested on: T-47D breast
[53] = tested on: TK-10 renal
[54] = tested on: U251 CNS
[55] = tested on: UACC-257 melanoma
[56] = tested on: UACC-62 melanoma
[57] = tested on: UO-31 renal

## CC(=O)n1c(-c2ccc(Cl)cc2)nc2c(c1=O)C(c1ccc(Cl)cc1)c1sc3c(Cl)cccc3c1O2 (centres undefined)
[1]
  GI50: 480 nM
  TGI: 1700 nM
[2]
  GI50: 835 nM
  TGI: 2320 nM
[3]
  GI50: 1000 nM
  TGI: 3910 nM
[4]
  GI50: 373 nM
  TGI: 1890 nM
[5]
  GI50: 488 nM
  TGI: 3030 nM
[6]
  GI50: 383 nM
  TGI: 4120 nM
[7]
  GI50: 364 nM
  TGI: 1570 nM
[8]
  GI50: 499 nM
  TGI: 2380 nM
[9]
  GI50: 926 nM
  TGI: 3710 nM
[10]
  GI50: 1090 nM
  TGI: 2570 nM
[11]
  GI50: 301 nM
  TGI: 1440 nM
[12]
  GI50: 418 nM
  TGI: 1740 nM
[13]
  GI50: 289 nM
  TGI: 853 nM
[14]
  GI50: 374 nM
  TGI: 1760 nM
[15]
  GI50: 1270 nM
  TGI: 4610 nM
[16]
  GI50: 396 nM
  TGI: 3230 nM
[17]
  GI50: 368 nM
  TGI: 1330 nM
[18]
  GI50: 847 nM
  TGI: 3110 nM
[19]
  GI50: 405 nM
  TGI: 2320 nM
[20]
  GI50: 433 nM
  TGI: 1780 nM
[21]
  GI50: 590 nM
  TGI: 1910 nM
[22]
  GI50: 300 nM
  TGI: 1240 nM
[23]
  GI50: 669 nM
  TGI: 2500 nM
[24]
  GI50: 282 nM
  TGI: 1470 nM
[25]
  GI50: 887 nM
  TGI: 2890 nM
[26]
  GI50: 167 nM
  TGI: 463 nM
[27]
  GI50: 409 nM
  TGI: 2540 nM
[28]
  GI50: 323 nM
  TGI: 1780 nM
[29]
  GI50: 513 nM
  TGI: 2320 nM
[30]
  GI50: 365 nM
  TGI: 1390 nM
[31]
  GI50: 296 nM
  TGI: 1630 nM
[32]
  GI50: 292 nM
  TGI: 1010 nM
[33]
  GI50: 402 nM
  TGI: 1500 nM
[34]
  GI50: 696 nM
  TGI: 4250 nM
[35]
  GI50: 1720 nM
  TGI: 4310 nM
[36]
  GI50: 626 nM
  TGI: 3020 nM
[37]
  GI50: 370 nM
  TGI: 2690 nM
[38]
  GI50: 504 nM
  TGI: 4750 nM
[39]
  GI50: 251 nM
  TGI: 850 nM
[40]
  GI50: 684 nM
  TGI: 3240 nM
[41]
  GI50: 310 nM
  TGI: 1240 nM
[42]
  GI50: 296 nM
  TGI: 1120 nM
[43]
  GI50: 482 nM
  TGI: 2150 nM
[44]
  GI50: 1100 nM
  TGI: 3150 nM
[45]
  GI50: 354 nM
  TGI: 1320 nM
[46]
  GI50: 352 nM
  TGI: 1950 nM
[47]
  GI50: 715 nM
  TGI: 2560 nM
[48]
  GI50: 469 nM
  TGI: 1980 nM
[49]
  GI50: 454 nM
  TGI: 5880 nM
[50]
  GI50: 436 nM
  TGI: 3950 nM
[51]
  GI50: 388 nM
  TGI: 1680 nM
[52]
  GI50: 480 nM
  TGI: 2780 nM
[53]
  GI50: 987 nM
  TGI: 2620 nM
[54]
  GI50: 446 nM
  TGI: 1670 nM
[55]
  GI50: 680 nM
  TGI: 3900 nM
[56]
  GI50: 351 nM
  TGI: 1600 nM
[57]
  GI50: 551 nM
  TGI: 2200 nM
